# Experimental data from US12544396B2, “Compositions and methods for treating metabolic disease” (VOGENX, priority 2019, dated 2026).
# Experiments:
# [1] = orally administered to rat, in comparison with no compound; cited from earlier work
# [2] = pre-treatment before mixed meal, cited from earlier work
# [3] = Oral glucose tolerance test (OGTT) in normal rats: plasma glucose and plasma insulin; type: in vivo; settings: for Plasma glucose 0 hr / Plasma insulin 0 hr / Plasma glucose 0.25 hr / Plasma insulin 0.25 hr / Plasma glucose 0.5 hr / Plasma insulin 0.5 hr / Plasma glucose 1 hr / Plasma insulin 1 hr / Plasma glucose 2 hr / Plasma insulin 2 hr / Plasma glucose 4 hr / Plasma insulin 4 hr / Plasma glucose ΔAUC 0-1 hr / Plasma insulin ΔAUC 0-1 hr: oral, KGT-1681 3 mg/kg, KGA-3235 0.03 mg/kg, Combo 3 and 0.03 mg/kg; for Effect on increase in plasma glucose after glucose loading: FIG. 1A; for Two-way ANOVA main effect in AUC0-1hr for plasma glucose: FIG. 1B; for Effect on plasma insulin: FIG. 2A
# Method: Example 1. Combination treatment with mizagliflozin and remogliflozin. Combination treatment with KGT-1681 and KGA-3235 in normal rats. KGT-1681 was suspended in 0.1% methylcellulose (MC) and KGA-3235 was dissolved in distilled water (DW). Rats (9 weeks of age) were divided into the following four groups and treated as indicated: vehicle, 0.1% MC+DW; KGT, KGT-1681 (3 mg/kg, 5 mL/kg) plus DW; KGA, 0.1% MC plus KGA-3235 (0.03 mg/kg, 5 mL/kg); and Combo, KGT-1681 plus KGA-3235 (3 and 0.03 mg/kg, respectively). After 16 h fasting, the drug and glucose solution (400 g/L, 5 ml/kg) were orally administered to rats. Blood was obtained in heparinized and aprotinin-treated tubes from a tail vein at each sampling point. Plasma glucose concentration was determined using a Glucose CII-test Wako (Wako Pure Chemicals, Osaka, Japan). Plasma insulin was determined using an enzyme-linked immunosorbent assay kit (Morinaga Institute of Biological Science, Inc., Yokohama, Japan). The area under the curve (AUC)0-1 hr for plasma glucose and insulin were calculated from the plasma glucose and insulin concentrations during the OGTT (Table 1).
SMILES,Plasma glucose 0 hr [3],Plasma insulin 0 hr [3],Plasma glucose 0.25 hr [3],Plasma insulin 0.25 hr [3],Plasma glucose 0.5 hr [3],Plasma insulin 0.5 hr [3],Plasma glucose 1 hr [3],Plasma insulin 1 hr [3],Plasma glucose 2 hr [3],Plasma insulin 2 hr [3],Plasma glucose 4 hr [3],Plasma insulin 4 hr [3],Effect on increase in plasma glucose after glucose loading [3],Two-way ANOVA main effect in AUC0-1hr for plasma glucose [3],Effect on plasma insulin [3],Plasma glucose ΔAUC 0-1 hr [3],Plasma insulin ΔAUC 0-1 hr [3],other results
CCOC(=O)OC[C@H]1O[C@@H](Oc2ccccc2Cc2ccc(OC)cc2)[C@H](O)[C@@H](O)[C@@H]1O [2-(4-methoxybenzyl)phenyl 6-O-ethoxycarbonyl-β-D-glucopyranoside],,,,,,,,,,,,,,,,,,Increase of lipid accumulative amount in rat liver [1]: inhibited significantly
OC[C@H]1O[C@@H](c2ccc(Cl)c(Cc3ccc(O[C@H]4CCOC4)cc3)c2)[C@H](O)[C@@H](O)[C@@H]1O [empagliflozin],,,,,,,,,,,,,,,,,,"Severity of hypoglycemic events ([2]; versus placebo, p=0.037): significantly reduced; Nadir glucose values [2]: significantly increased; Events requiring rescue glucose administration ([2]; placebo 7 of 12 patients): two"
"CCOC(=O)OC[C@H]1O[C@@H](Oc2nn(C(C)C)c(C)c2Cc2ccc(OC(C)C)cc2)[C@H](O)[C@@H](O)[C@@H]1O [KGT-1681, 5-methyl-4-[4-(1-methylethoxy)benzyl]-1-(1-methylethyl)-1H-pyrazol-3-yl 6-O-(ethoxycarbonyl)-β-D glucopyranoside]",101 ± 3 mg/dL,380 ± 29 pg/mL,146 ± 5 mg/dL,1219 ± 183 pg/mL,163 ± 7 mg/dL,978 ± 182 pg/mL,168 ± 6 mg/dL,1187 ± 152 pg/mL,113 ± 5 mg/dL,425 ± 40 pg/mL,85 ± 2 mg/dL,338 ± 92 pg/mL,inhibited the increase in plasm glucose,significant main effect,decreased,152 ± 5 mg·h/dL,1020 ± 148 pg·h/mL,
"Cc1cc(OCCCNCC(C)(C)C(N)=O)ccc1Cc1c(O[C@@H]2O[C@H](CO)[C@@H](O)[C@H](O)[C@H]2O)n[nH]c1C(C)C [KGA-3235, 3-(3-{4-[3-(β-D-glucopyranosyloxy)-5-isopropyl-1H-pyrazol-4-ylmethyl-]-3-methylphenoxy}propylamino)-2,2-dimethylpropionamide]",92 ± 4 mg/dL,278 ± 25 pg/mL,147 ± 7 mg/dL,1197 ± 146 pg/mL,164 ± 5 mg/dL,1014 ± 131 pg/mL,169 ± 5 mg/dL,933 ± 111 pg/mL,136 ± 2 mg/dL,551 ± 98 pg/mL,80 ± 3 mg/dL,286 ± 39 pg/mL,inhibited the increase in plasm glucose,significant main effect,decreased,152 ± 4 mg·h/dL,948 ± 88 pg·h/mL,
